Patent publication US20230263822A1, “MODULATION OF FACTOR 11 EXPRESSION” (Ionis Pharmaceuticals, Inc., priority 2008, published 2023)
Strand notation (5' to 3'): a small letter for the sugar, then the base; units joined by * are phosphorothioate-linked, units joined directly phosphodiester-linked; [ ] holds rarer units or linkages, { } end groups; capitals alone tell only the bases. e = 2'-O-(2-methoxyethyl) (MOE); [5mC] = 5-methylcytosine; d = 2'-deoxy (DNA)

Tested on: human Factor 11 mRNA
Assay: Antisense inhibition of human Factor 11 in HepG2 cells by microwalk gapmers, lipofectin, 75 nM (Example 3)
Type: cell-based
Procedure: These gapmers were designed by creating gapmers shifted slightly upstream and downstream (i.e. “microwalk”) of the original gapmers from Table 3. Gapmers were also created with various motifs, e.g. 5-10-5 MOE, 3-14-3 MOE, and 2-13-5 MOE. These gapmers were tested in vitro. Cultured HepG2 cells at a density of 10,000 cells per well were transfected using lipofectin reagent with 75 nM antisense oligonucleotide. After a treatment period of approximately 24 hours, RNA was isolated from the cells and Factor 11 mRNA levels were measured by quantitative real-time PCR. Factor 11 mRNA levels were adjusted according to total RNA content, as measured by RIBOGREEN. Results are presented as percent inhibition of Factor 11, relative to untreated control cells.
The chimeric antisense oligonucleotides in Table 4 were designed as 5-10-5 MOE, 3-14-3 MOE, and 2-13-5 MOE gapmers. The first listed gapmers in Table 4 are the original gapmers (see Table 3) from which the remaining gapmers were designed via microwalk and are designated by an asterisk. The 5-10-5 gapmers are 20 nucleotides in length, wherein the central gap segment is comprised of 10 2′-deoxynucleotides and is flanked on both sides (in the 5′ and 3′ directions) by wings comprising 5 nucleotides each. The 3-14-3 gapmers are 20 nucleotides in length, wherein the central gap segment is comprised of 14 2′-deoxynucleotides and is flanked on both sides (in the 5′ and 3′ directions) by wings comprising 3 nucleotides each. The 2-13-5 gapmers are 20 nucleotides in length, wherein the central gap segment is comprised of 13 2′-deoxynucleotides. The central gap is flanked on the 5′ end with a wing comprising 2 nucleotides and on the 3′ end with a wing comprising 5 nucleotides. For each of the motifs (5-10-5, 3-14-3, and 2-13-5), each nucleotide in the 5′ wing segment and each nucleotide in the 3′ wing segment has a 2′-MOE modification. The internucleoside linkages throughout each gapmer are phosphorothioate (P=S) linkages. All cytidine residues throughout each gapmer are 5-methyl cytidines. “Target start site” indicates the 5′-most nucleotide to which the gapmer is targeted. “Target stop site” indicates the 3′-most nucleotide to which the gapmer is targeted. Each gapmer listed in Table 4 is targeted to SEQ ID NO: 1 (GENBANK Accession No. NM_000128.3).

[1] = HepG2 cells, lipofectin, gapmers targeted to nucleobases 1062 to 1091 of SEQ ID NO: 1
[2] = HepG2 cells, lipofectin, gapmers targeted to nucleobases 1275 to 1318 of SEQ ID NO: 1
[3] = HepG2, lipofectin, ~24 h, gapmers targeted to nucleobases 656 to 704 of SEQ ID NO: 1
[4] = HepG2 cells, lipofectin, gapmers targeted to nucleobases 738 to 762 of SEQ ID NO: 1

Substance | % inhibition [3] | % inhibition [4] | other results
416909 (antisense eA*eT*eT*d[5mC]*dT*dT*dT*dG*dG*dG*d[5mC]*d[5mC]*dA*dT*dT*d[5mC]*d[5mC]*eT*eG*eG) [compound 416909] | – | – | % inhibition [1]: 78%
416927 (antisense eT*eT*eG*dG*dT*dG*d[5mC]*dA*d[5mC]*dA*dG*dT*dT*dT*d[5mC]*dT*dG*eG*e[5mC]*eA) [compound 416927] | – | – | % inhibition [2]: 87%
416869 (antisense eA*eA*eA*dT*dG*dT*d[5mC]*dT*dT*dT*dG*dT*dT*dG*d[5mC]*dA*dA*eG*e[5mC]*eG) [compound 416869] | 81% | – | –
416811 (antisense e[5mC]*e[5mC]*eA*e[5mC]*eA*dT*dA*dA*dA*dT*dG*dT*d[5mC]*dT*dT*eT*eG*eT*eT*eG) [compound 416811] | 84% | – | –
416874 (antisense e[5mC]*eA*e[5mC]*dA*dT*dA*dA*dA*dT*dG*dT*d[5mC]*dT*dT*dT*dG*dT*eT*eG*e[5mC]) [compound 416874] | 49% | – | –
416914 (antisense eT*eT*eG*dA*dG*dA*dT*dT*d[5mC]*dT*dT*dT*dG*dG*dG*d[5mC]*d[5mC]*eA*eT*eT) [compound 416914] | – | – | % inhibition [1]: 87%
416816 (antisense e[5mC]*eT*eA*eG*eG*dT*d[5mC]*d[5mC]*dA*d[5mC]*dA*dT*dA*dA*dA*eT*eG*eT*e[5mC]*eT) [compound 416816] | 79% | – | –
416902 (antisense eT*e[5mC]*eA*dT*d[5mC]*d[5mC]*dG*dT*dG*d[5mC]*dA*dT*d[5mC]*dT*dT*dT*d[5mC]*eT*eT*eG) [compound 416902] | – | 46% | –
416976 (antisense eT*e[5mC]*d[5mC]*dG*dT*dG*d[5mC]*dA*dT*d[5mC]*dT*dT*dT*d[5mC]*dT*eT*eG*eG*e[5mC]*eA) [compound 416976] | – | 83% | –
417016 (antisense e[5mC]*eA*dG*d[5mC]*dG*dG*dA*d[5mC]*dG*dG*d[5mC]*dA*dT*dT*dG*eG*eT*eG*e[5mC]*eA) [compound 417016] | – | – | % inhibition [2]: 85%
417014 (antisense eG*e[5mC]*dG*dG*dA*d[5mC]*dG*dG*d[5mC]*dA*dT*dT*dG*dG*dT*eG*e[5mC]*eA*e[5mC]*eA) [compound 417014] | – | – | % inhibition [2]: 87%
417009 (antisense e[5mC]*eG*dG*d[5mC]*dA*dT*dT*dG*dG*dT*dG*d[5mC]*dA*d[5mC]*dA*eG*eT*eT*eT*e[5mC]) [compound 417009] | – | – | % inhibition [2]: 85%
416841 (antisense eG*eA*eG*eA*eT*dT*d[5mC]*dT*dT*dT*dG*dG*dG*d[5mC]*d[5mC]*eA*eT*eT*e[5mC]*e[5mC]) [compound 416841] | – | – | % inhibition [1]: 87%
416975 (antisense e[5mC]*e[5mC]*dG*dT*dG*d[5mC]*dA*dT*d[5mC]*dT*dT*dT*d[5mC]*dT*dT*eG*eG*e[5mC]*eA*eT) [compound 416975] | – | 87% | –
416949 (antisense e[5mC]*eA*dT*dA*dA*dA*dT*dG*dT*d[5mC]*dT*dT*dT*dG*dT*eT*eG*e[5mC]*eA*eA) [compound 416949] | 64% | – | –
416944 (antisense eA*e[5mC]*eT*dG*dG*d[5mC]*dA*dG*d[5mC]*dG*dG*dA*d[5mC]*dG*dG*d[5mC]*dA*eT*eT*eG) [compound 416944] | – | – | % inhibition [2]: 83%
416899 (antisense eT*e[5mC]*e[5mC]*dG*dT*dG*d[5mC]*dA*dT*d[5mC]*dT*dT*dT*d[5mC]*dT*dT*dG*eG*e[5mC]*eA) [compound 416899] | – | 86% | –
416872 (antisense e[5mC]*eA*eT*dA*dA*dA*dT*dG*dT*d[5mC]*dT*dT*dT*dG*dT*dT*dG*e[5mC]*eA*eA) [compound 416872] | 20% | – | –
416830 (antisense eT*e[5mC]*e[5mC]*eG*eT*dG*d[5mC]*dA*dT*d[5mC]*dT*dT*dT*d[5mC]*dT*eT*eG*eG*e[5mC]*eA) [compound 416830] | – | 81% | –
416833 (antisense eT*e[5mC]*eA*eT*e[5mC]*d[5mC]*dG*dT*dG*d[5mC]*dA*dT*d[5mC]*dT*dT*eT*e[5mC]*eT*eT*eG) [compound 416833] | – | 65% | –
